This is an account of results in PMC3445516 (PLoS ONE, 2012).

Read-outs that look alike come from different tables or passages of the source.

What all share (assay): Ambit kinase profiling, competition binding
One assay addresses T1, ERK3 (Homo sapiens, UniProt Q16659).
T1 construct: purchased Ambit Biosciences (KINOMEscan)
The procedure: (§1) Also included in the kinase profile are four isoforms of PKC (δ, ε, η, θ) and eight isoforms of CAMKs (CAMKIα, δ, γ; CAMKIIα, β, δ, γ; CAMK4).
(§2) The global kinase profiling experiment was performed by Ambit Biosciences.

The target in assay [1] is T2, RPS6KA1(Kin.Dom.2-C-terminal) (Homo sapiens, UniProt Q15418).
T2 construct: RPS6KA1(Kin.Dom.2-C-terminal); purchased Ambit Biosciences (KINOMEscan)
The procedure:
as §1, §2

The next assay addresses T3, p38-delta (Homo sapiens, UniProt O15264).
T3 construct: purchased Ambit Biosciences (KINOMEscan)
T3 sequence (O15264 1-365): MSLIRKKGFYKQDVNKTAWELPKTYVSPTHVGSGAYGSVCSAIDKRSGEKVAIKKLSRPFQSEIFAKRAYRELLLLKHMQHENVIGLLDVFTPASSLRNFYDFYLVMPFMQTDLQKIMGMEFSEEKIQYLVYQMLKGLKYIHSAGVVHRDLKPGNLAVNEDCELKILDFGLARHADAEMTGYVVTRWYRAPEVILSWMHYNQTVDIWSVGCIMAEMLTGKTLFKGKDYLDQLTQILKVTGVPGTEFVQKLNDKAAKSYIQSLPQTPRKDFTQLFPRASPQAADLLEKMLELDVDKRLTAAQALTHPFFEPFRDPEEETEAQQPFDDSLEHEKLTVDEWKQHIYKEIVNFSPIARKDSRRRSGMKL
The procedure: as §1, §2

In the next assay the target is T4, IRAK3 (Homo sapiens, UniProt Q9Y616).
T4 construct: purchased Ambit Biosciences (KINOMEscan)
T4 sequence (Q9Y616 1-596): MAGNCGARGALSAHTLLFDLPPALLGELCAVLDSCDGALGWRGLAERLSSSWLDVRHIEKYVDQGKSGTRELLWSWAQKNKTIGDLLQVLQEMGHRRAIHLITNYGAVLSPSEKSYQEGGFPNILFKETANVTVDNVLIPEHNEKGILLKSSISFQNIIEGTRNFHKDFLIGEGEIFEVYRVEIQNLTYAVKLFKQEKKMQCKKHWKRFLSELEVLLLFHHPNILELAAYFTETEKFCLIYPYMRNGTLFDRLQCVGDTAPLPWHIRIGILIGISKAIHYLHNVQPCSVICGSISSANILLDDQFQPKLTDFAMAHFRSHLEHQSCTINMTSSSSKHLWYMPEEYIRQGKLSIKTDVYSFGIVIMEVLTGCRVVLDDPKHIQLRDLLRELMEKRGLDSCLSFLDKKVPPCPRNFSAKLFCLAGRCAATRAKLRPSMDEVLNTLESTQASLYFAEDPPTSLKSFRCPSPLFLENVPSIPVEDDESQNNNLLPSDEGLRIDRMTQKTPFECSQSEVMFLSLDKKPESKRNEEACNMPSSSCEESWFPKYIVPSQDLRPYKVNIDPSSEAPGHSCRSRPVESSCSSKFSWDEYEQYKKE
The procedure: as §1, §2

Another assay concerns the target T5, EGFR(G719S) (Homo sapiens, UniProt P00533, G719S).
T5 construct: purchased Ambit Biosciences (KINOMEscan)
The settings on record: for % Competition: 10 µM. The procedure: as §1, §2

A further assay has as its target T6, TAOK1 (Homo sapiens, UniProt Q7L7X3).
T6 construct: purchased Ambit Biosciences (KINOMEscan)
T6 sequence (Q7L7X3 1-1001): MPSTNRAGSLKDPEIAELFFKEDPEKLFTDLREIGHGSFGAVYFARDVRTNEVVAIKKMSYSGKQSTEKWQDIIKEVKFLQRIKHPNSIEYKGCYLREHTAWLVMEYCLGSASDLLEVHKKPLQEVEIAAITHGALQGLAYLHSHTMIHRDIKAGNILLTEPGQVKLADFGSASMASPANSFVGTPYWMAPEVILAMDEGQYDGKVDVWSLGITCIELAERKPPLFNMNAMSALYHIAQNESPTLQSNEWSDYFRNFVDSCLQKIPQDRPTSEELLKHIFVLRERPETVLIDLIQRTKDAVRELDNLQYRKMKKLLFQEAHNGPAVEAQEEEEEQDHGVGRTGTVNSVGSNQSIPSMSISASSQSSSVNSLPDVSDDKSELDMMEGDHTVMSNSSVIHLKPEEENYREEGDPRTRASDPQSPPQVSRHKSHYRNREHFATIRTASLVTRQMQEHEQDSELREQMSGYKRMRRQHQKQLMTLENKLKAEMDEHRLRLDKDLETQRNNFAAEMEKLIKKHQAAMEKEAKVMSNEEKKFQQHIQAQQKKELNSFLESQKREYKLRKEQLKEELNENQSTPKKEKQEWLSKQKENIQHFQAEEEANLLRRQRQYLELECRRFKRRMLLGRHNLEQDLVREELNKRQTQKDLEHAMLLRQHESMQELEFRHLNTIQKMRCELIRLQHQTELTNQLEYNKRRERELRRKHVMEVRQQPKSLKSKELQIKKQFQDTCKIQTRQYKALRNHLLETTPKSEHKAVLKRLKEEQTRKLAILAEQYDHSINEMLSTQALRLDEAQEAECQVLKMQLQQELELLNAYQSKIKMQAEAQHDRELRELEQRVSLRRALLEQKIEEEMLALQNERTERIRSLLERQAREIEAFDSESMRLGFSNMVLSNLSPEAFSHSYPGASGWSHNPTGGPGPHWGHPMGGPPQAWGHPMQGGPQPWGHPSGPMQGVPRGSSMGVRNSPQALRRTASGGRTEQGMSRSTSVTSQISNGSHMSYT
The procedure:
as §1, §2

The next assay deals with T7, PCTK2 (Homo sapiens, UniProt Q00537).
T7 construct: purchased Ambit Biosciences (KINOMEscan)
The procedure: as §1, §2

In the next assay the target is T8, ACVR2B (Homo sapiens, UniProt Q13705).
T8 construct: purchased Ambit Biosciences (KINOMEscan)
The conditions noted are these: for % Competition: 10 µM. The procedure:
as §1, §2

A further assay has as its target T9, CDK3 (Homo sapiens, UniProt Q00526).
T9 construct: purchased Ambit Biosciences (KINOMEscan)
The settings on record: for % Competition: 10 µM. The procedure:
as §1, §2

Another assay concerns the target T10, MST3 (Homo sapiens, UniProt Q9Y6E0).
T10 construct: purchased Ambit Biosciences (KINOMEscan)
The conditions noted are these: for % Competition: 10 µM. The procedure:
as §1, §2

The target in the next assay is T11, RAF1 (Homo sapiens, UniProt P04049).
T11 construct: purchased Ambit Biosciences (KINOMEscan)
The procedure:
as §1, §2

Another assay has as its target T12, FRK (Homo sapiens, UniProt P42685).
T12 construct: purchased Ambit Biosciences (KINOMEscan)
The procedure:
as §1, §2

A further assay has as its target T13, PKC η (Homo sapiens, UniProt P24723).
T13 construct: purchased Ambit Biosciences (KINOMEscan)
The settings on record: for competition: PKC η, 10 µM. The procedure: as §1, §2

T2 sequence (Q15418 392-735 limits assumed): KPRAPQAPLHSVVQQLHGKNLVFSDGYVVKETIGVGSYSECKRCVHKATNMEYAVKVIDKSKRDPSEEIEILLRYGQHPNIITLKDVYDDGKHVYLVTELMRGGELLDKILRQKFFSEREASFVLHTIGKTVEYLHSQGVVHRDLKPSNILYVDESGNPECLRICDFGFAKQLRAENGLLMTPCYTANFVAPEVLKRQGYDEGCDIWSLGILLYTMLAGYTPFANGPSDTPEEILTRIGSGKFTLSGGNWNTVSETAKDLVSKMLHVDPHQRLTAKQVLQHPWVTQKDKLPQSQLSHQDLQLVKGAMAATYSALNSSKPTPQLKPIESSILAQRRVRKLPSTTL
T7 sequence (Q00537 whole entry): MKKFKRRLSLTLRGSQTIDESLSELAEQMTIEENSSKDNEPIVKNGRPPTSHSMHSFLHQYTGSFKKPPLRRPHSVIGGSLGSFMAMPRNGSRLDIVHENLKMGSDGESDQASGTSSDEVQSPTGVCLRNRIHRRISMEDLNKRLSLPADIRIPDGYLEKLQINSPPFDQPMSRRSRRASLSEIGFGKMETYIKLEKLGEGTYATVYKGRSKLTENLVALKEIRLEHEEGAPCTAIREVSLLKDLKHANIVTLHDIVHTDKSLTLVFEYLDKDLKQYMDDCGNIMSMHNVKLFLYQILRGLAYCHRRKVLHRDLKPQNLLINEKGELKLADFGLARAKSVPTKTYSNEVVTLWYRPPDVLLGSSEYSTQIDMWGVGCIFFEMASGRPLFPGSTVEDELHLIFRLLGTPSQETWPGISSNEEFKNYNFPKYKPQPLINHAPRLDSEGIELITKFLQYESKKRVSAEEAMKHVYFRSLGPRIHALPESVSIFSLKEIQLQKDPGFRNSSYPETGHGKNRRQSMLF
T12 sequence (P42685 whole entry): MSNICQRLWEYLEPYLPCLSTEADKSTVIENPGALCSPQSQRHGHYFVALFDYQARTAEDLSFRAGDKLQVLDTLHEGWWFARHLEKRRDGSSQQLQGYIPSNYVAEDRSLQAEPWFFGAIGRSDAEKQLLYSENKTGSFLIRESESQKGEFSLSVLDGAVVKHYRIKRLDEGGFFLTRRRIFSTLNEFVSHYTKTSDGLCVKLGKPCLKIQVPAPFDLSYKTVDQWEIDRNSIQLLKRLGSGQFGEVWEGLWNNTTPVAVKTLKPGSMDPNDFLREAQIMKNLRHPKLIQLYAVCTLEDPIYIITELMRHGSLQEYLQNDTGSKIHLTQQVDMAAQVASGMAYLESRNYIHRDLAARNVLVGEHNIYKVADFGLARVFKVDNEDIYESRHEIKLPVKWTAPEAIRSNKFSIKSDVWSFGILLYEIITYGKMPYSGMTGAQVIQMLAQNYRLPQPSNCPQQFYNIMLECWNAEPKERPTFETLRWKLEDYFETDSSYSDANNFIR
T11 sequence (P04049 whole entry): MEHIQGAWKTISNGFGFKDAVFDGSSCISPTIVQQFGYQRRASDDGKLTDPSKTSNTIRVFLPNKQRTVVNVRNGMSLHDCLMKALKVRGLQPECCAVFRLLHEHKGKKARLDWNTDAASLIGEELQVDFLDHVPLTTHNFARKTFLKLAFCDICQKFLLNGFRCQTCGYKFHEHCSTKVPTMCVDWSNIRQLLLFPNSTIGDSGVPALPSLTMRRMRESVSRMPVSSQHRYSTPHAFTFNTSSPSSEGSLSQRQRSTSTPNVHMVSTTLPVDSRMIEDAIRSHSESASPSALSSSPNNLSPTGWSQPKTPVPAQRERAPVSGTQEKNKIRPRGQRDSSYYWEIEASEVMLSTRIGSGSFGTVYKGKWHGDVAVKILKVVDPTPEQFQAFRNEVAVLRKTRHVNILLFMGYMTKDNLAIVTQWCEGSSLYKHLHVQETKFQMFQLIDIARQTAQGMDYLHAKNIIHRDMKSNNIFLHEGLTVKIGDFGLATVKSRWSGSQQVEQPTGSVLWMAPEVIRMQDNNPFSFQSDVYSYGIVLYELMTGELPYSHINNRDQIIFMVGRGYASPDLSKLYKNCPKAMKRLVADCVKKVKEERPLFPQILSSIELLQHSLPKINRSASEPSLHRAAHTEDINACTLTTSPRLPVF
T9 sequence (Q00526 whole entry): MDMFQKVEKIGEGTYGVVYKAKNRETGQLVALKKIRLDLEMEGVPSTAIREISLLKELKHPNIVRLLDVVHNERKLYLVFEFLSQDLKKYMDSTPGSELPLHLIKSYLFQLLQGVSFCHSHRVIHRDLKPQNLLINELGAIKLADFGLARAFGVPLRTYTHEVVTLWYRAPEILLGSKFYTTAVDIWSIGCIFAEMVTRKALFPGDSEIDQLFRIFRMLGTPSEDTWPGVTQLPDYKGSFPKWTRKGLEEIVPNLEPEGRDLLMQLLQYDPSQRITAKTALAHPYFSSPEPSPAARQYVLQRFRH
T10 sequence (Q9Y6E0 whole entry): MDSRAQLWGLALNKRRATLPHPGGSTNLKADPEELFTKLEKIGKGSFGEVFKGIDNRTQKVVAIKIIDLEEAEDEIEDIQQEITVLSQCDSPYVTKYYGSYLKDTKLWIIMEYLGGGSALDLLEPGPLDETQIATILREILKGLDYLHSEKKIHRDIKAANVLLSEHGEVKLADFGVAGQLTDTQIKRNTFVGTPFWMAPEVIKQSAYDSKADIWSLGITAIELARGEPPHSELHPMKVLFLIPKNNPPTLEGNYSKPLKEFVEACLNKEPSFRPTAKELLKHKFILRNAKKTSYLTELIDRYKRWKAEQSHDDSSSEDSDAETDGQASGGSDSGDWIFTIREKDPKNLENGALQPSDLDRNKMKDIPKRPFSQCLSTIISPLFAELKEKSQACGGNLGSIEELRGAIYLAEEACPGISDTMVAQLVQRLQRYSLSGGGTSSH
T1 sequence (Q16659 whole entry): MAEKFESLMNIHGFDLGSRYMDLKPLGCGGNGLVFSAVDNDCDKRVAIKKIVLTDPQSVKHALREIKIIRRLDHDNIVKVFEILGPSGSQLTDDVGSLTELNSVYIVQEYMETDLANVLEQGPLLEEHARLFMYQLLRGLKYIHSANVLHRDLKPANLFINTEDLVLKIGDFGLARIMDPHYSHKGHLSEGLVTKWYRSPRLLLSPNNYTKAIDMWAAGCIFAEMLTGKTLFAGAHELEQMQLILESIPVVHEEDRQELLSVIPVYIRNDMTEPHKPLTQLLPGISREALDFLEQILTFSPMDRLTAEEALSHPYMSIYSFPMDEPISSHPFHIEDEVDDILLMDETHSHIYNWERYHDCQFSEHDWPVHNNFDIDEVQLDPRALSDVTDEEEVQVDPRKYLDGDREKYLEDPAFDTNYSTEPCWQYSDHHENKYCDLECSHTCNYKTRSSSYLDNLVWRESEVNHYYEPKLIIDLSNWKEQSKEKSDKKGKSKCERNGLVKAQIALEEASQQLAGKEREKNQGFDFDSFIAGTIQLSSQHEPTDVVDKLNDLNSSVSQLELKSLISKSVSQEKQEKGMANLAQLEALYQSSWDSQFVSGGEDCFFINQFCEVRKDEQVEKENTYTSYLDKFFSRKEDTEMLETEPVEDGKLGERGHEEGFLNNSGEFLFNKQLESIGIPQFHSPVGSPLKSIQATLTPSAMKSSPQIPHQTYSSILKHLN
T13 sequence (P24723 whole entry): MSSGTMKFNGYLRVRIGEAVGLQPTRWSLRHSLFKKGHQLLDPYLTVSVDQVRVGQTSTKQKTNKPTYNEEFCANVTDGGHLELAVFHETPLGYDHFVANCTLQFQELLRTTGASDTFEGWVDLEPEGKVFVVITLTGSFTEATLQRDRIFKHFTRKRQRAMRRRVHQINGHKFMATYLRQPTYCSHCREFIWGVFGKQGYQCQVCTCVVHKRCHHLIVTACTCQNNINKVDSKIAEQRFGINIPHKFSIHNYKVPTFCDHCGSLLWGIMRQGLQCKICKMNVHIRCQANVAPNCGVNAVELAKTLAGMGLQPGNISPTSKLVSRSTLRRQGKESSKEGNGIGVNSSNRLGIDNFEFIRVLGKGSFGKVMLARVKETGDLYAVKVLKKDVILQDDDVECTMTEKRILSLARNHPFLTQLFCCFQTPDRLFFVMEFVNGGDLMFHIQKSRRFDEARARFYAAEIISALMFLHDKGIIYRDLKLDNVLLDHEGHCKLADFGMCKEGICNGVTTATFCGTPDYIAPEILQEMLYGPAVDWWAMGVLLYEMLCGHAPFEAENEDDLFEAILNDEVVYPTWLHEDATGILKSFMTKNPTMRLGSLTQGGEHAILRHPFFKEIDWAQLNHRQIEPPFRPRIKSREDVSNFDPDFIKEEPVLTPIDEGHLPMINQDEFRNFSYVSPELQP
T8 sequence (Q13705 19-512): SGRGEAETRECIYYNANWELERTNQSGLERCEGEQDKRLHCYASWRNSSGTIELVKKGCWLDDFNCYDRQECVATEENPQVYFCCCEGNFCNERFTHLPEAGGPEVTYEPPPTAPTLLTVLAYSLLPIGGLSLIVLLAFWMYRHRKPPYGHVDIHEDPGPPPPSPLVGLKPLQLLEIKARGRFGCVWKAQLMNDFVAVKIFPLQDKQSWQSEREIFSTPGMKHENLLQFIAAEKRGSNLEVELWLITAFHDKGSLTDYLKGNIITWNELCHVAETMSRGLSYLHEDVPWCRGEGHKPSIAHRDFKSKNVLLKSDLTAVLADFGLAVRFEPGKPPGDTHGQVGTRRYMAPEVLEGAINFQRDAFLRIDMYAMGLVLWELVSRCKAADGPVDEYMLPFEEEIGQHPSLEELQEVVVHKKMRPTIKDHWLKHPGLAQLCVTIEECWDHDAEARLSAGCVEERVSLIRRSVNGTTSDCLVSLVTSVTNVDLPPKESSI

With `Fc1ccc(-c2c(-c3ccncc3)[nH]c3nccnc23)cc1` [Compound 122], the inhibition at 10 µM stood at 98% at ERK3 (ERK3, 10 µM, read-out: % Competition); 92% in [1] (RPS6KA1(Kin.Dom.2-C-terminal), 10 µM, read-out: % Competition); 82% at p38-delta (10 µM, read-out: % Competition); 75% on IRAK3 (IRAK3, 10 µM, read-out: % Competition); 99% on TAOK1 (TAOK1, 10 µM, read-out: % Competition); 78% on PCTK2 (PCTK2, 10 µM, read-out: % Competition). The inhibition at 10 µM was determined as 81% at RAF1 (RAF1, 10 µM, read-out: % Competition) and 85% on FRK (FRK, 10 µM, read-out: % Competition). For the same compound, the “% Competition” value at EGFR(G719S) was 96%; at ACVR2B it was 92%; on CDK3, 92%; at MST3 it was 68%. The competition on PKC η is under 50%.
As to `Fc1ccc(-c2c(-c3ccncc3)[nH]c3nccnc23)cc1` [RO1155697-000-005], the inhibition at 10 µM at ERK3 (ERK3, compound concentration 10 uM, read-out: Percent Competition) was 98%; in [1] (RPS6KA1(Kin.Dom.2-C-terminal), compound concentration 10 uM, read-out: Percent Competition), 92%; on p38-delta (compound concentration 10 uM, read-out: Percent Competition) it was 82%; on IRAK3 (IRAK3, compound concentration 10 uM, read-out: Percent Competition), 75%; on TAOK1 (TAOK1, compound concentration 10 uM, read-out: Percent Competition) it was 99%; at PCTK2 (PCTK2, compound concentration 10 uM, read-out: Percent Competition) it was 78%. Further, the inhibition at 10 µM on RAF1 (RAF1, compound concentration 10 uM, read-out: Percent Competition) is 81%; at FRK (FRK, compound concentration 10 uM, read-out: Percent Competition), 85%; on PKC η (PRKCH, compound concentration 10 uM, read-out: Percent Competition), under 50%. Besides, the “Percent Competition” value at EGFR(G719S) (compound concentration 10 uM) stood at 96%; at ACVR2B (compound concentration 10 uM), 92%; at CDK3 (compound concentration 10 uM) it was 92%; on MST3 (compound concentration 10 uM), 68%.
With `CC(O)CNc1cc(-c2[nH]c3cccnc3c2-c2ccc(F)cc2)ccn1` (stereo not drawn) [Compound 140], the inhibition at 10 µM on ERK3 (read-out: % Competition) was under 50%; in assay [1] (read-out: % Competition) it was 87%; at IRAK3 (read-out: % Competition) it was under 50%; on TAOK1 (read-out: % Competition) it was 67%; on PCTK2 (read-out: % Competition) it was under 50%; at RAF1 (read-out: % Competition), under 50%. Also, at FRK (read-out: % Competition), the inhibition at 10 µM is under 50%. Moreover, the “% Competition” value at p38-delta (10 µM) is under 50%; on EGFR(G719S), 70%; at ACVR2B, under 50%; on CDK3 it was under 50%; at MST3, under 50%. This compound gave a competition on PKC η of under 50%.
